{"source": "ChEMBL document CHEMBL5316319", "about": "“Targeting Death-Associated Protein Kinases for Treatment of Human Diseases: Recent Advances and Future Directions” (J Med Chem, 2023)", "key": {"[1]": {"molecular_target": "T1, Death-associated protein kinase 1 (Homo sapiens, UniProt P53355)", "experiment": "Inhibition of DAPK1 (unknown origin) in presence of 33P-ATP radiolabeled kinase assay"}, "[2]": {"molecular_target": "T2, Serine/threonine-protein kinase 17B (Homo sapiens, UniProt O94768)", "T2 sequence (O94768 whole entry)": "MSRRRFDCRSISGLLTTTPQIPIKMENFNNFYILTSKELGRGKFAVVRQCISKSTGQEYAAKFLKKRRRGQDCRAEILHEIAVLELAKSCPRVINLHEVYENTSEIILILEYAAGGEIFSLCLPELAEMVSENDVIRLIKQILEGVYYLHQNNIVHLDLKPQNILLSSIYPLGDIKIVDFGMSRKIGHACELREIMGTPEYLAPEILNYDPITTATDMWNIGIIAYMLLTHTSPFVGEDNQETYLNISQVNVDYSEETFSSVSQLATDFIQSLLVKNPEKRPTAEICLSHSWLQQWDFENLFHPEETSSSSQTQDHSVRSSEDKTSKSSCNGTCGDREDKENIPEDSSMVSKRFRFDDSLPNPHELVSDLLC", "experiment": "Inhibition of recombinant GST-tagged DRAK2 (unknown origin) by promega ADP-Glo assay"}, "[3]": {"molecular_target": "T1, Death-associated protein kinase 1", "experiment": "Inhibition of DAPK1 (1 to 285 residues) (unknown origin) expressed in Escherichia coli using KKLNRTLSFAEPG as substrate in presence of ATP by fluoro-spark kinase assay"}, "[4]": {"molecular_target": "T3, Death-associated protein kinase 3 (Homo sapiens, UniProt O43293)", "experiment": "Inhibition of human recombinant GST-fused DAPK3 (1 to 320 residues) expressed in Escherichia coli BL21 (DE3) assessed as inhibition constant using MYPT1 as peptide substrate incubated for 10 mins in presence of [gamma-32P]ATP by radiometric scintillation assay"}, "[5]": {"molecular_target": "Serine/threonine-protein kinase pim-1 (Homo sapiens, UniProt P11309)", "experiment": "Inhibition of human full length-His6 tagged PIM1 (1 to 312 residues) expressed in Escherichia coli BL21 (DE3) assessed as inhibition constant using RSRHSSYPAGT as peptide substrate incubated for 10 mins in presence of [gamma-32P]ATP by radiometric scintillation assay"}, "[6]": {"molecular_target": "Serine/threonine-protein kinase pim-2 (Homo sapiens, UniProt Q9P1W9)", "experiment": "Inhibition of human full length-His6 tagged PIM2 (1 to 311 residues) expressed in Escherichia coli BL21 (DE3) assessed as inhibition constant using RSRHSSYPAGT as peptide substrate incubated for 10 mins in presence of [gamma-32P]ATP by radiometric scintillation assay"}, "[7]": {"molecular_target": "T4, Serine/threonine-protein kinase pim-3 (Homo sapiens, UniProt Q86V86)", "experiment": "Inhibition of human full length-His6 tagged PIM3 (1 to 326 residues) expressed in Escherichia coli BL21 (DE3) assessed as inhibition constant using RSRHSSYPAGT as peptide substrate incubated for 10 mins in presence of [gamma-32P]ATP by radiometric scintillation assay"}, "[8]": {"molecular_target": "T1, Death-associated protein kinase 1", "experiment": "Inhibition of DAPK1 (unknown origin)"}, "[9]": {"molecular_target": "T5, Serine/threonine-protein kinase 17A (Homo sapiens, UniProt Q9UEE5)", "T5 sequence (Q9UEE5 whole entry)": "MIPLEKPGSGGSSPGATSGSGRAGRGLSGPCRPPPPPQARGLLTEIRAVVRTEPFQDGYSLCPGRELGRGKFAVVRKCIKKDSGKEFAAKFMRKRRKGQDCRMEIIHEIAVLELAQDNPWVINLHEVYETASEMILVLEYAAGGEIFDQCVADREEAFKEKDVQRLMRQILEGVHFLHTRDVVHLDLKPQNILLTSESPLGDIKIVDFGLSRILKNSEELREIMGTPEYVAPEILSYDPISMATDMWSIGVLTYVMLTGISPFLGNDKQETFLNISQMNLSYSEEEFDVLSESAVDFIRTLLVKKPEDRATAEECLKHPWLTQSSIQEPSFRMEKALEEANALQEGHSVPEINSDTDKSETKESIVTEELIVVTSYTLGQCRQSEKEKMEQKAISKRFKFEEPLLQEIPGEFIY", "experiment": "Inhibition of DRAK1 (unknown origin)"}, "[10]": {"molecular_target": "T2, Serine/threonine-protein kinase 17B", "experiment": "Inhibition of DRAK2 (unknown origin)"}, "[11]": {"molecular_target": "T3, Death-associated protein kinase 3", "experiment": "Inhibition of DAPK3 (unknown origin)"}, "[12]": {"molecular_target": "T2, Serine/threonine-protein kinase 17B", "experiment": "Binding affinity to DRAK2 (unknown origin) assessed as dissociation constant"}, "[13]": {"molecular_target": "T4, Serine/threonine-protein kinase pim-3", "experiment": "Inhibition of PIM3 (unknown origin) at 10 uM by (33P-ATP) filter-binding assay relative to control"}, "[14]": {"molecular_target": "T1, Death-associated protein kinase 1", "experiment": "Inhibition of DAPK1 (unknown origin) at 10 uM by (33P-ATP) filter-binding assay relative to control"}, "[15]": {"molecular_target": "Death-associated protein kinase 2 (Homo sapiens, UniProt Q9UIK4)", "experiment": "Binding affinity to DAPK2 (unknown origin) assessed as dissociation constant"}, "[16]": {"molecular_target": "T3, Death-associated protein kinase 3", "experiment": "Binding affinity to DAPK3 (unknown origin) assessed as dissociation constant"}}, "data": [{"smiles": "c1ccc(COc2ncnc3c2ncn3Cc2ccccc2)cc1", "values": [{"measurement": "IC50", "setting": "[1]", "result": 5.9, "unit": "µM"}]}, {"smiles": "COC(=O)C1=C2Nc3ccccc3C23CC2N(C)[C@H]3C[C@H]1[C@@]2(C)C(C)=O", "note": "(stereo not given in full)", "values": [{"measurement": "IC50", "setting": "[2]", "result": 11.6, "unit": "µM"}]}, {"smiles": "Cc1nc2c(OCc3ccccc3)ncnc2n1C(C)C", "values": [{"measurement": "IC50", "setting": "[1]", "result": 23, "unit": "µM"}]}, {"smiles": "Nc1c(O)c(S(=O)(=O)O)c(O)c2c1C(=O)c1ccccc1C2=O", "values": [{"measurement": "IC50", "setting": "[3]", "result": 9.6, "unit": "µM"}]}, {"smiles": "N#CCSc1nc2c(cnn2-c2cccc(Cl)c2)c(=O)[nH]1", "values": [{"measurement": "Ki", "setting": "[4]", "result": 0.315, "unit": "µM"}, {"measurement": "Ki", "setting": "[5]", "result": 1.48, "unit": "µM"}, {"measurement": "Ki", "setting": "[6]", "result": 17.3, "unit": "µM"}, {"measurement": "Ki", "setting": "[7]", "result": 0.072, "unit": "µM"}]}, {"smiles": "CC(C)(Sc1nc2c(cnn2-c2ccccc2)c(=O)[nH]1)C(N)=O", "values": [{"measurement": "Ki", "setting": "[4]", "result": 0.126, "unit": "µM"}, {"measurement": "Ki", "setting": "[5]", "result": 6.31, "unit": "µM"}, {"measurement": "Ki", "setting": "[6]", "result": "> 100", "unit": "µM"}, {"measurement": "Ki", "setting": "[7]", "result": 2.5, "unit": "µM"}]}, {"smiles": "CCc1ccccc1-c1nn(CCCCCCCCCCC(=O)Nc2cnnc(-c3ccccc3)c2)c(=N)cc1C", "values": [{"measurement": "IC50", "setting": "[8]", "result": 13, "unit": "µM"}]}, {"smiles": "O=C1c2ccccc2C(=O)c2c1ccc(O)c2O", "note": "[ATHRAQUINONES A]", "values": [{"measurement": "IC50", "setting": "[3]", "result": 3.6, "unit": "µM"}]}, {"smiles": "COc1cnc(Nc2ccc(CS(C)(=O)=O)cc2)nc1Nc1cc(C2CC2)[nH]n1", "values": [{"measurement": "IC50", "setting": "[8]", "result": 0.37, "unit": "µM"}, {"measurement": "IC50", "setting": "[9]", "result": 0.1, "unit": "µM"}, {"measurement": "IC50", "setting": "[10]", "result": 0.01, "unit": "µM"}, {"measurement": "IC50", "setting": "[11]", "result": 0.31, "unit": "µM"}]}, {"smiles": "CC(C)(C)n1c(-c2ccccc2)nc2c(OCc3ccccc3)ncnc21", "values": [{"measurement": "IC50", "setting": "[1]", "result": 2.5, "unit": "µM"}]}, {"smiles": "Nc1c(-c2n[nH]c(=S)o2)sc2ncc(-c3ccsc3)cc12", "values": [{"measurement": "Kd", "setting": "[12]", "result": 0.008, "unit": "µM"}]}, {"smiles": "CC(Sc1nc2c(cnn2-c2cccc(Cl)c2)c(=O)[nH]1)C(N)=O", "note": "(stereo not given)", "values": [{"measurement": "inhibition", "setting": "[13]", "result": 76, "unit": "%"}, {"measurement": "inhibition", "setting": "[14]", "result": 89, "unit": "%"}, {"measurement": "Kd", "setting": "[15]", "result": 0.079, "unit": "µM"}, {"measurement": "Kd", "setting": "[16]", "result": 0.28, "unit": "µM"}, {"measurement": "Ki", "setting": "[4]", "result": 0.26, "unit": "µM"}, {"measurement": "Ki", "setting": "[5]", "result": 2.94, "unit": "µM"}, {"measurement": "Ki", "setting": "[6]", "result": 0.208, "unit": "µM"}, {"measurement": "Ki", "setting": "[7]", "result": "> 100", "unit": "µM"}]}, {"smiles": "O=C1c2ccccc2C(=O)c2c(O)c(O)cc(O)c21", "note": "[PURPURIN]", "values": [{"measurement": "IC50", "setting": "[3]", "result": 0.89, "unit": "µM"}]}, {"smiles": "COc1cc(-c2ccc3ncc(-c4ccc(C(=O)NCCN(C)C)cc4)n3n2)ccc1O", "values": [{"measurement": "IC50", "setting": "[8]", "result": 0.247, "unit": "µM"}]}, {"smiles": "CCC(Sc1nc2c(cnn2-c2cccc(F)c2)c(=O)[nH]1)C(N)=O", "note": "(stereo not given)", "values": [{"measurement": "Ki", "setting": "[4]", "result": 0.119, "unit": "µM"}, {"measurement": "Ki", "setting": "[5]", "result": 6.48, "unit": "µM"}, {"measurement": "Ki", "setting": "[6]", "result": "> 100", "unit": "µM"}, {"measurement": "Ki", "setting": "[7]", "result": 1.07, "unit": "µM"}]}, {"smiles": "Nc1c(-c2n[nH]c(=S)o2)sc2ccc(Cl)cc12", "values": [{"measurement": "Kd", "setting": "[12]", "result": 0.25, "unit": "µM"}]}]}
